Test results from ChEMBL document CHEMBL1139571, “Synthesis and characterization of azole isoflavone inhibitors of aromatase” (Bioorg Med Chem Lett, 2005).

Biological target: T1, Aromatase (Homo sapiens, UniProt P11511)
T1 sequence (P11511 whole entry): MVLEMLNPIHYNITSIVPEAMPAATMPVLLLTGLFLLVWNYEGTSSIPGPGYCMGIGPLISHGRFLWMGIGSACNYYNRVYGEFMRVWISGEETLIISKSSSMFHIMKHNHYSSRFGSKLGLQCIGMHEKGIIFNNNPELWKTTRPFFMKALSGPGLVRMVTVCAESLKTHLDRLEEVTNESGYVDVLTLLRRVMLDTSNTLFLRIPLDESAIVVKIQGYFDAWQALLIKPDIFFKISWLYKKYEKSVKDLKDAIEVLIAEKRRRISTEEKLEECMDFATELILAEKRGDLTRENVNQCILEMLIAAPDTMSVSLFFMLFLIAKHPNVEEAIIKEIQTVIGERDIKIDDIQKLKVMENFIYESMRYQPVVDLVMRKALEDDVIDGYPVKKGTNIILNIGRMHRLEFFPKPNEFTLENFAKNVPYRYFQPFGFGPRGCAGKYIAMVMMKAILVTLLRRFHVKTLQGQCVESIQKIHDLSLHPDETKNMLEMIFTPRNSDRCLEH
Description: Inhibitory concentration against human placental aromatase by deutirium oxide release

## COc1ccc2c(=O)c(-c3ccccc3)c(Sc3nccn3C)oc2c1
  IC50: > 50 µM
